According to patent publication US20210345656A1, “HIGH NICOTINE ABSORPTION” (Fertin Pharma A/S, priority 2017, published 2021):

Conditions: nicotine concentration increased from 100 microgram/mL to 14,000 microgram/mL

Q: Which “Change of permeability of nicotine across the buccal mucosa” value does the source give for `CN1CCCC1c1cccnc1` (stereo not shown) [nicotine] here?
A: decrease of about a factor of two
